# Laboratory results: patent US20230346827A1 (priority 2020, published 2023)
# Legend:
# [1] = system: bronchial epithelial cells and HDFn + (TNFα and IL-4); assay: BioMAP BF4T system; assay type: cell-based, human; settings: annotated relative to vehicle controls
# Source text: Cell types and stimuli used in each system are as follows: 3C system [HUVEC + (IL-1β, TNFα and IFNy)], 4H system [HUVEC + (IL-4 and histamine)], LPS system [PBMC and HUVEC + LPS (TLR4 ligand)], SAg system [PBMC and HUVEC + TCR ligands], BT system [CD19+ B cells and PBMC + (α-IgM and TCR ligands)], BF4T system [bronchial epithelial cells and HDFn + (TNFα and IL-4)], BE3C system [bronchial epithelial cells + (IL-1β, TNFα and IFNy)], CASM3C system [coronary artery smooth muscle cells + (IL-1 β, TNFα and IFNy)], HDF3CGF system [HDFn + (IL-1β, TNFα, IFNy, EGF, bFGF and PDGF-BB)], KF3CT system [keratinocytes and HDFn + (IL-1β, TNFα, IFNy and TGFβ)], MyoF system [differentiated lung myofibroblasts + (TNFα and TGFβ)] and Mphg system [HUVEC and M1 macrophages + Zymosan (TLR2 ligand)].
# Systems are derived from either single cell types or co-culture systems. Adherent cell types are cultured in 96 or 384-well plates until confluence, followed by the addition of PBMC (SAg and LPS systems). […] Soluble factors from supernatants are quantified using either HTRF® detection, bead-based multiplex immunoassay or capture ELISA. Overt adverse effects of test agents on cell proliferation and viability (cytotoxicity) are detected by sulforhodamine B (SRB) staining, for adherent cells, and alamarBlue® reduction for cells in suspension. […]
# [2] = system: human PBMC; assay: Stimulated cytokine release from human PBMC (5-plex Luminex: IFNγ, IL-8, TNFα, IL-1β, IL-10); assay type: cell-based
# Procedure: Example 9 investigated the ability of LMW-DS to modify the secretion of IL-6 from human PBMC arising from the use of various stimuli. The present study performed a broader analysis of the cell culture supernatants arising from Example 9. Thus, peripheral blood mononuclear cells (PBMC) were isolated from healthy donors through Ficoll-Paque PLUS density centrifugation. The PBMC were cultured at 2×10^5 cells/well in the absence (unstimulated PBS vehicle controls) or presence of stimulation (LPS, peptidoglycan, pokeweed mitogen, PHA-L, CpG + IL-15, or Cytostim) in the absence (vehicle) or presence of LMW-DS (Tikomed AB, Viken, Sweden, WO 2016/076780; three concentrations; top concentration 600 µg/ml, 200 µg/ml and 60 µg/ml) for 24 hours at 37° C., 5% CO2.
# Accordingly, the treatments were as follows for each PBMC donor: • i. Vehicle • ii. Simulation • iii. Stimulation + LMW-DS (60 µg/ml) • iv. Stimulation + LMW-DS (200 µg/ml) • v. Stimulation + LMW-DS (600 µg/ml) with each assessed in triplicate such that the total numbers of samples were: • 1. LPS; 165 samples (from 11 donors) • 2. Peptidoglycan from B. subtilis; 90 samples (from 6 donors) • 3. PHA-L; 90 samples (from 6 donors) • 4. 0.2 µM CpG + IL-15; 90 samples (from 6 donors) • 5. 1.0 µM CpG + IL-15; 90 samples (from 6 donors) • 6. Pokeweed mitogen; 90 samples (from 6 donors) • 7. 10 µl/ml Cytostim; 90 samples (from 6 donors) • 8. 30 µl/ml Cytostim; 90 samples (from 6 donors)
# Following treatment, cell culture supernatants were removed, centrifuged and stored at -20° C. before thawing for multiplex analysis of various cytokines using the 5-plex human magnetic Luminex assay from R&D systems (Cat. No. LXSAHM-05). Luminex analysis was carried out exactly following manufacturer’s protocols.
# [3] = LPS, highest concentration of LMW-DS
substance,measurement,setting,value
sodium salt of dextran sulfate [LMW-DS],Increased biomarker activity,[1],Eot3
same,IL-8 secretion response,[2]; CpG + IL-15,little impact
same,IL-10 secretion,[2]; Cytostim,concentration dependent large reduction
same,"secretion of IFNγ, IL-1β, IL-8, TNFα",[2]; Cytostim,small reductions
same,IFNγ secretion,"[2]; LPS, LMW-DS 60-600 µg/ml",concentration dependent but small reduction
same,IL-10 secretion,"[2]; LPS, LMW-DS 60-600 µg/ml",concentration dependent but small reduction
same,IL-1β secretion,[2]; [3],modest reduction
same,IL-8 secretion,[2]; [3],modest reduction
same,TNFα secretion,[2]; [3],modest reduction
same,IFNγ release,[2]; PHA-L,small decreases
same,IL-8 release,[2]; PHA-L,small decreases
same,IL-10 secretion,[2]; PHA-L,"large, concentration dependent decrease"
same,TNFα release,[2]; PHA-L,small decreases
same,IL-1β secretion,[2]; peptidoglycan,increases
same,TNFα secretion,[2]; peptidoglycan,increases
same,general reduction in cytokine release,"[2]; peptidoglycan, LMW-DS up to 600 µg/ml",little evidence
same,IL-10 secretion,[2]; pokeweed mitogen,concentration-dependent decrease
same,"secretion of IFNγ, IL-1β, IL-8, TNFα",[2]; pokeweed mitogen,not impacted generally
